Data: patent publication US10106627B2, “Process for the preparation of polymeric biosurfactants” (priority 2014, dated 2018)
Values after ≈ are worked out from the molar mass of the structure shown. *1 amine or outer side, *2 acyl side, *3 side chain or, on linkers, in order; H or OH if unused. Where a SMILES comes first, the peptide text is derived from it. Bridges are numbered along the chain shown (N, C = ends). [ ]: non-standard residue; d: D form. X1 = CC(C)CCCCCCCCC[C@H](CC(=O)[*:1])O[*:2]

How the values were obtained:
erythrocytes = assay: Erythrocyte hemolysis assay (H2O2); assay type: cell-based; settings: Erythrocyte, 0.5 h; human erythrocytes, H2O2, 37° C., 30 min; read-out: EC50 erythrocyte hemolysis inhibition
Procedure: (§1) The antioxidant activity of Microsan from Microbacterium sp. strain BS-2 and Brevisan from Brevibacillus sp. strain BS-207 in cell free system was measured by its inhibitory activity on the generation of DPPH free radicals, superoxide anions (O^2−), lipid peroxidation and erythrocyte hemolysis. The DPPH free radical scavenging assay was performed using 2,2-diphenyl-1-picrylhydrazyl (DPPH) free radical scavenging method [Ara. N. and Hasan, N. (2009) Res. J. Med. Medical Sci. 4, 107-110]. Different concentrations of Microsan and Brevisan were mixed individually with 150 μl of 160 μM methanolic solution of DPPH and incubated at 35° C. for 30 min in dark. The effective concentration (EC50) was calculated by measuring the absorbance of the samples at 517 nm. The superoxide anion scavenging was measured using phenazine methosulfate-nicotinamide adenine dinucleotide (PMS/NADH) method as previously described [Liu, F., Ooi, V. E. and Chang, S. T. (1997) Life Sci. 60, 763-771]. The lipid peroxidation assay was performed using the previously described method [Zhang, Q., Yu, P., Li, Z., Zhang, H., Xu, Z. and Li, P. (2003) J. Appl. Phycol. 15, 305-310] which is based on measuring the lipid peroxide decomposed product malondialdehyde (MDA). […] Samples were incubated at 37° C. for 30 min and the absorbance was measured at 540 nm. […]

[1] = Lipid peroxidation assay (malondialdehyde); assay type: biochemical; settings: cell free
Procedure: as §1

[2] = DPPH free radical scavenging assay (cell free); assay type: biochemical; settings: 35° C., 30 min
Procedure: as §1

[3] = Superoxide anion scavenging (PMS/NADH method); assay type: biochemical; settings: cell free
Procedure: as §1

[4] = system: Klebsiella planticola MTCC 530; assay: Microtiter broth dilution MIC; assay type: cell-based; settings: Klebsiella planticola MTCC 530, 24 h, 35° C.
Procedure: (§2) The antimicrobial activity of Microsan and M-EPS-Au-NP was determined using the microtiter broth dilution method [Kumar, C. G. and Mamidyala, S. K. (2011) Coll. Surf B: Biointerf. 84, 462-466]. Different bacterial pathogens (10^7 cfu ml^−1 cells) were inoculated in 100 μl of Muller-Hinton broth. Different concentrations of Microsan, M-EPS-Au-NP and Brevisan were added to each strain and incubated for 24 h at 35° C. After incubation, 40 μl of p-iodonitrotetrazolium (INT, Sigma) dye (0.02%, 20 mg INT dissolved in 100 ml of 40% dimethyl formamide was added to each well and incubated for 2 h. The reduction of p-iodonitrotetrazolium was spectroscopically measured at 450 nm using TRIAD multimode reader (Dynex Technologies, Inc., Chantilly, Va.) to determine the minimum inhibitory concentration (MIC) values. Commercially available surfactin (CAS 24730-31-2; Sigma-Aldrich) and laminarin (CAS No 9008-22-4; Sigma-Aldrich) used as positive controls were run in parallel for comparison. The MIC values of Microsan and M-EPS-Au-NP observed against the tested bacterial strains are shown in Table 3.

[5] = system: Bacillus subtilis MTCC 121; assay: Microtiter broth dilution MIC; assay type: cell-based; settings: Bacillus subtilis MTCC 121, 24 h, 35° C.
Procedure: as §2

[6] = system: Micrococcus luteus MTCC 2470; assay: Microtiter broth dilution MIC; assay type: cell-based; settings: Micrococcus luteus MTCC 2470, 24 h, 35° C.
Procedure: as §2

[7] = system: Escherichia coli MTCC 739; assay: Microtiter broth dilution MIC; assay type: cell-based; settings: Escherichia coli MTCC 739, 24 h, 35° C.
Procedure: as §2

[8] = system: Staphylococcus aureus MTCC 96; assay: Microtiter broth dilution MIC; assay type: cell-based; settings: Staphylococcus aureus MTCC 96, 24 h, 35° C.
Procedure: as §2

[9] = system: Pseudomonas aeruginosa MTCC 2453; assay: Microtiter broth dilution MIC; assay type: cell-based; settings: Pseudomonas aeruginosa MTCC 2453, 24 h, 35° C.
Procedure: as §2

[10] = system: Staphylococcus aureus MLS16 MTCC 2940; assay: Microtiter broth dilution MIC; assay type: cell-based; settings: Staphylococcus aureus MLS16 MTCC 2940, 24 h, 35° C.
Procedure: as §2

O=C1O[C@H]([C@@H](O)CO)C(O)=C1O [ascorbic acid, reference compound]
EC50 (erythrocytes): 120 µg/mL (≈ 680 µM)
EC50 lipid peroxidation inhibition [1]: 130.97 µg/mL (≈ 744 µM)
EC50 DPPH free radical scavenging [2]: 40.28 µg/mL (≈ 229 µM)
EC50 superoxide anions (O^2−) scavenging [3]: 21.1 µg/mL (≈ 120 µM)

Laminarin
Minimum inhibitory concentration (MIC) [4]: 4.68 µg/mL
Minimum inhibitory concentration (MIC) [5]: 9.37 µg/mL
Minimum inhibitory concentration (MIC) [6]: 4.68 µg/mL
Minimum inhibitory concentration (MIC) [7]: 18.75 µg/mL
Minimum inhibitory concentration (MIC) [8]: 18.75 µg/mL
Minimum inhibitory concentration (MIC) [9]: 4.68 µg/mL
Minimum inhibitory concentration (MIC) [10]: 37.5 µg/mL

CC(C)CCCCCCCCC[C@@H]1CC(=O)N[C@@H](CCC(=O)O)C(=O)N[C@@H](CC(C)C)C(=O)N[C@H](CC(C)C)C(=O)N[C@@H](C(C)C)C(=O)N[C@@H](CC(=O)O)C(=O)N[C@H](CC(C)C)C(=O)N[C@@H](CC(C)C)C(=O)O1 [Surfactin] (EL[dL]VD[dL]L; linker N-C via X1)
MIC ([4]; MTCC530, read-out: Minimum inhibitory concentration (MIC)): 9.37 µg/mL (≈ 9.04 µM)
MIC ([5]; MTCC121, read-out: Minimum inhibitory concentration (MIC)): 4.68 µg/mL (≈ 4.52 µM)
MIC ([6]; MTCC2470, read-out: Minimum inhibitory concentration (MIC)): 18.8 µg/mL (≈ 18.1 µM)
MIC ([7]; MTCC739, read-out: Minimum inhibitory concentration (MIC)): 9.37 µg/mL (≈ 9.04 µM)
MIC ([8]; MTCC96, read-out: Minimum inhibitory concentration (MIC)): 9.37 µg/mL (≈ 9.04 µM)
MIC ([9]; MTCC2453, read-out: Minimum inhibitory concentration (MIC)): 18.8 µg/mL (≈ 18.1 µM)
MIC ([10]; MTCC2940, read-out: Minimum inhibitory concentration (MIC)): 18.8 µg/mL (≈ 18.1 µM)
